Laboratory results from paper PMC9516332 (Frontiers in Oncology, 2022).
Read-outs that look alike come from different tables or passages of the source.

Columns and labels:
Assay in all cases: Kinase panel profiling at 1 µmol/L (MSA or IMAP), percentage inhibition
Type in all cases: biochemical
[1] = target: T1, panel of 255 wild-type kinases (Homo sapiens, UniProt P29322); conditions: read-out: %-inhibition at 1 µmol/L, EPHA8
T1 sequence (P29322 28-1005): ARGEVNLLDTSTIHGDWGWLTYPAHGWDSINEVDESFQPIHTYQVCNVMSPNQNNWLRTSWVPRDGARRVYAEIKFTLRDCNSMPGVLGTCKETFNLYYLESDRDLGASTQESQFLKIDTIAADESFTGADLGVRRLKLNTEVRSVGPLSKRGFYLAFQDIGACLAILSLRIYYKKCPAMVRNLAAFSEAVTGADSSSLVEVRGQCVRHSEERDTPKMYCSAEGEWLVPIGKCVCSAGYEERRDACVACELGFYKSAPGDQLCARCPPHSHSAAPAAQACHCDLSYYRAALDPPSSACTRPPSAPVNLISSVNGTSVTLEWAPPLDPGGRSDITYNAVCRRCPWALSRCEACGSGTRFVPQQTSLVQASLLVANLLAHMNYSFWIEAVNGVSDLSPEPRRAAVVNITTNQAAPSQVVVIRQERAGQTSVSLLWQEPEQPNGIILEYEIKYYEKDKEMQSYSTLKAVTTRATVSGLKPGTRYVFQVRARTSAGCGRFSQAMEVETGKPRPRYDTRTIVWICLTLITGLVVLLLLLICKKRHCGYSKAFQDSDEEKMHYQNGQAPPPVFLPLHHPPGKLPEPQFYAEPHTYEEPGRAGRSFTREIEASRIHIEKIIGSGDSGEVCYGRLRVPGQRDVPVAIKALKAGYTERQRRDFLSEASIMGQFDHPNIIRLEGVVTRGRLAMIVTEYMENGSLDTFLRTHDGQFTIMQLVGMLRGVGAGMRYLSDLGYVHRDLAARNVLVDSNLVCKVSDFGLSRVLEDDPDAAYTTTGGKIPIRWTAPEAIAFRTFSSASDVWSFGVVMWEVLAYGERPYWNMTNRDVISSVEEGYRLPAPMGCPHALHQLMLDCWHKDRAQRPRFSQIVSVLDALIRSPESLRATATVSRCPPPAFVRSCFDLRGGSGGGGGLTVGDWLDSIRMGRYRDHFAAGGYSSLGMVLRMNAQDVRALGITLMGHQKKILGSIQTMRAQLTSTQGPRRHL

[2] = target: T2, panel of 255 wild-type kinases (Homo sapiens, UniProt P54760); conditions: read-out: %-inhibition at 1 µmol/L, EPHB4
T2 sequence (P54760 16-987): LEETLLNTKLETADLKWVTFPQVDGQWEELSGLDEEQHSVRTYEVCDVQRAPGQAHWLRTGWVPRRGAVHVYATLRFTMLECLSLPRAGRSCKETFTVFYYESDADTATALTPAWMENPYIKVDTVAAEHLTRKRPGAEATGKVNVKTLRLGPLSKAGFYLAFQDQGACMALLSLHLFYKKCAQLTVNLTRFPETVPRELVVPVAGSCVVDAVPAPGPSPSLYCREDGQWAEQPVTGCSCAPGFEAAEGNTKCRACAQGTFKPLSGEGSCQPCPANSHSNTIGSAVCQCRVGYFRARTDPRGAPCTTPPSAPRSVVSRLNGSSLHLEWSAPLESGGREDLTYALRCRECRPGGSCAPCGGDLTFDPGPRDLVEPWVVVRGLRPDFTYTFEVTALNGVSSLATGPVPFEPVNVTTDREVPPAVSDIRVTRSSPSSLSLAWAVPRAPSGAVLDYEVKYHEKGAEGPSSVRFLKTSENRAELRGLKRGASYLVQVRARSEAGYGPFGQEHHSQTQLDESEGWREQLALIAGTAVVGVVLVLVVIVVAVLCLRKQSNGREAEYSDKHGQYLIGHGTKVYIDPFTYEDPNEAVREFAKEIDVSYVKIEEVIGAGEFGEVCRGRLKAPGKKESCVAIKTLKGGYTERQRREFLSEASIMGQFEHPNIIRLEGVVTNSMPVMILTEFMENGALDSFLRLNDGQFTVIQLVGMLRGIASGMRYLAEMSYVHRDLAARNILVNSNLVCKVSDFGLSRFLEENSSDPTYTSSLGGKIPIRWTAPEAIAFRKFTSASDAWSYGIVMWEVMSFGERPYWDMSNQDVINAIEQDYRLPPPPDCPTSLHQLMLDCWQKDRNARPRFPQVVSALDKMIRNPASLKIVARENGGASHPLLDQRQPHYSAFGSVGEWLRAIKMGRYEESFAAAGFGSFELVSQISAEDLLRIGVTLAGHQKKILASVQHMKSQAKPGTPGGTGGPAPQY

[3] = target: panel of 255 wild-type kinases (Homo sapiens, UniProt P06493); conditions: read-out: %-inhibition CDC2/CycB1
[4] = target: panel of 255 wild-type kinases (Homo sapiens, UniProt Q9Y463); conditions: read-out: %-inhibition at 1 µmol/L, DYRK1B
[5] = target: panel of 255 wild-type kinases (Homo sapiens, UniProt Q02763); conditions: read-out: %-inhibition at 1 µmol/L, TIE2
[6] = kinase EPHA8, 1 µmol/L single concentration
[7] = kinase EPHB4, 1 µmol/L single concentration
[8] = CDC2/CycB1 kinase assay, 1 µmol/L single concentration
[9] = kinase DYRK1B, 1 µmol/L single concentration
[10] = kinase TIE2, 1 µmol/L single concentration

Row | SMILES | inhibition at 1 µM [1, 6] [%] | inhibition at 1 µM [2, 7] [%] | inhibition at 1 µM [3, 8] [%] | inhibition at 1 µM [4, 9] [%] | inhibition at 1 µM [5, 10] [%] | inhibition at 1 µM [1] [%] | inhibition at 1 µM [2] [%] | inhibition at 1 µM [3] [%] | inhibition at 1 µM [4] [%] | inhibition at 1 µM [5] [%]
1 | Cn1cnc2c(F)c(Nc3ccc(Br)cc3Cl)c(C(=O)NOCCO)cc21 [selumetinib] | -12 | 0.674 | -11 | -3.17 | -9 | – | – | – | – | –
2 | COc1ccc(CN2C3CC2CN(c2ccc(-c4cc(OCC(C)(C)O)cn5ncc(C#N)c45)cn2)C3)cn1 [selpercatinib] | 45 | 73 | -4 | 1.42 | 43 | – | – | – | – | –
3 | O=C(Nc1cnn2ccc(N3CCC[C@@H]3c3cc(F)ccc3F)nc12)N1CC[C@H](O)C1 [larotrectinib] | -9 | -2.17 | -7 | 6 | 1.84 | – | – | – | – | –
4 | CCN1C(=O)N(c2c(F)c(OC)cc(OC)c2F)Cc2cnc3[nH]c(CN4CCOCC4)cc3c21 [pemigatinib] | -6 | -3 | 10 | 6 | 28 | – | – | – | – | –
5 | CNC(=O)c1ccc(-c2cnc3ncc(Cc4ccc5ncccc5c4)n3n2)cc1F [capmatinib] | – | – | – | – | – | -14 | -1.2 | 2 | 1.71 | -3.44
6 | FC(F)(F)c1ccc(CNc2ccc(Cc3c[nH]c4ncc(Cl)cc34)cn2)cn1 [pexidartinib] | 6.33 | -2 | 32 | 4.37 | 14 | – | – | – | – | –
7 | C[C@H](Nc1ncnc2nc[nH]c12)c1cc2cccc(Cl)c2c(=O)n1-c1ccccc1 [duvelisib] | -7 | 3.24 | -0.937 | -0.692 | -0.0949 | – | – | – | – | –
8 | CO[C@]1(C(=O)N[C@@H](C)c2ccc(-n3cc(F)cn3)nc2)CC[C@H](c2nc(C)cc(Nc3cc(C)[nH]n3)n2)CC1 [pralsetinib] | 84 | 56 | 15 | -12 | 5.49 | – | – | – | – | –
9 | Cc1cc(Nc2ncnc3ccc(NC4=NC(C)(C)CO4)cc23)ccc1Oc1ccn2ncnc2c1 [tucatinib] | -14 | -0.489 | -7 | -1.89 | -2.82 | – | – | – | – | –
10 | Cn1cnc2c(F)c(Nc3ccc(Br)cc3F)c(C(=O)NOCCO)cc21 [binimetinib] | 2.68 | -0.0401 | 2.36 | -7 | 2.63 | – | – | – | – | –
11 | Cc1nc(NC(=O)N2CCC[C@H]2C(N)=O)sc1-c1ccnc(C(C)(C)C(F)(F)F)c1 [alpelisib] | -6.59 | 3.19 | -3.48 | 8 | -0.712 | – | – | – | – | –
12 | C=CC(=O)N1CCC([C@@H]2CCNc3c(C(N)=O)c(-c4ccc(Oc5ccccc5)cc4)nn32)CC1 [zanubrutinib] | -8 | -2.82 | -7 | 5.39 | 2 | – | – | – | – | –
13 | C[C@H]1Oc2cc(cnc2N)-c2c(nn(C)c2C#N)CN(C)C(=O)c2ccc(F)cc21 [lorlatinib] | 6 | 43 | 3.16 | -2.8 | 17 | – | – | – | – | –
14 | CCN1CCN(c2ccc(Nc3cc(N(C)C(=O)Nc4c(Cl)c(OC)cc(OC)c4Cl)ncn3)cc2)CC1 [infigratinib] | -10 | -0.369 | -9 | -2.3 | 63 | – | – | – | – | –
15 | COC(=O)N[C@@H](C)CNc1nccc(-c2cn(C(C)C)nc2-c2cc(Cl)cc(NS(C)(=O)=O)c2F)n1 [encorafenib] | 16 | -0.672 | 8 | -3.42 | 6 | – | – | – | – | –
16 | CCc1nc(C(N)=O)c(Nc2ccc(N3CCC(N4CCN(C)CC4)CC3)c(OC)c2)nc1NC1CCOCC1 [gilteritinib] | 66 | 74 | 26 | 34 | 41 | – | – | – | – | –
17 | CN1CCN(c2ccc(C(=O)Nc3n[nH]c4ccc(Cc5cc(F)cc(F)c5)cc34)c(NC3CCOCC3)c2)CC1 [entrectinib] | 55 | 73 | 3.63 | 6 | 72 | – | – | – | – | –
18 | COc1cc2ncnc(Nc3ccc(F)c(Cl)c3)c2cc1NC(=O)/C=C/CN1CCCCC1 [dacomitinib] | 59 | 62 | -6 | 7 | 16 | – | – | – | – | –
19 | Cn1cc(-c2cc3c(N4CCN(c5ncc([C@@](C)(N)c6ccc(F)cc6)cn5)CC4)ncnn3c2)cn1 [avapritinib] | 73 | 34 | 3 | 47 | 3.23 | – | – | – | – | –
20 | CCn1c(=O)c(-c2cc(NC(=O)Nc3ccccc3)c(F)cc2Br)cc2cnc(NC)cc21 [ripretinib] | 101 | 90 | -5.56 | -2.38 | 79 | – | – | – | – | –
